The experiment has as its target GABA-B receptor (Rattus norvegicus (Rat), UniProt O88871+Q9Z0U4). Briefly: [35S]GTPgS binding assay, rat cortical membranes, in presence of EC25 GABA. Format: biochemical. The conditions noted are these: rat brain cortex membranes; in presence of 1 μM GABA (EC25); positive allosteric modulation. How it is done: Preparation of Rat Brain Membranes for Native Receptor Assays
Membranes from rat brain cortex were prepared as described in detail by Olpe et al. and stored at concentrations of 1.66 mg/mL protein at −80° C. until required. (Olpe, H.-R, et al. Eur J Pharmacol 1990; 187: 27-38).
[^35S] GTPgS Binding Assay
The composition of the assay mixtures [in a final volume of 200 μL in 96-well U-bottom plates (Greiner) was as follows: 50 mM Tris-HCl buffer, pH 7.7, 10 mM MgCl2, 0.2 mM EGTA, 2 mM CaCl2, 100 mM NaCl, 20 µM guanosine 5′-diphosphate (Sigma), 0.3 nM [^35S]GTPgS (1250 Ci/mmol (PerkinElmer)), and the test compounds at increasing concentrations (from 10 nM up to […]), […] of rat cortical membranes, and a concentration of […], that has been observed in previous experiments to correspond to the EC25, a concentration that gives 25% of the maximal response of GABA. The samples were incubated at room temperature for 60 minutes on a shaker. The incubation was stopped by rapid vacuum filtration over glass-fiber filter plates (UniFilter-96 well, GF/B membrane plates, PerkinElmer) using a 96-well plate harvester (TOMTEK© Harvester). The UniFilter plate was washed five times with ice-cold wash buffer (50 mM Tris-HCl buffer, pH 7.7, 10 mM MgCl2, and 100 mM NaCl. After filtration the plate was dried for 90 minutes at 55° C. The plates were closed on the bottom with black sealing membranes, and liquid scintillation cocktail (35 μL, Betaplate Scint, PerkinElmer) was added to each well. After sealing the top of the plate, an additional incubation step of 90 minutes at room temperature followed before measuring the plate. The amount of membrane-bound [^35S]GTPgS was measured using a 96-well plate reader (Microbeta®, PerkinElmer). Nonspecific binding was measured in the presence of unlabeled 10 μM of GTPgS (Millipore) and without GABA. Basal binding was measured in the absence of 1 μM GABA, and maximal binding was measured in the presence of GABA using 1 mM GABA concentrations.
Data analysis. The concentration-response curves of compounds of the present disclosure in the presence of EC25 of GABA-B receptor agonist were generated using the GraphPad Prism® program (GraphPad Software, San Diego, Calif.). Data was normalized using basal binding as 0% and maximal binding as 100%. The curves were fitted by nonlinear regression allowing determination of EC50 values from sigmoidal dose-response curves. Each curve was performed using triplicate sample per date point and 10 concentrations.
(In general: GTPγS resists hydrolysis and so accumulates on activated G proteins.)

Where only a bound is given, the exact number is not on record here.

Sequence of GABA-B receptor (Q9Z0U4 17-960): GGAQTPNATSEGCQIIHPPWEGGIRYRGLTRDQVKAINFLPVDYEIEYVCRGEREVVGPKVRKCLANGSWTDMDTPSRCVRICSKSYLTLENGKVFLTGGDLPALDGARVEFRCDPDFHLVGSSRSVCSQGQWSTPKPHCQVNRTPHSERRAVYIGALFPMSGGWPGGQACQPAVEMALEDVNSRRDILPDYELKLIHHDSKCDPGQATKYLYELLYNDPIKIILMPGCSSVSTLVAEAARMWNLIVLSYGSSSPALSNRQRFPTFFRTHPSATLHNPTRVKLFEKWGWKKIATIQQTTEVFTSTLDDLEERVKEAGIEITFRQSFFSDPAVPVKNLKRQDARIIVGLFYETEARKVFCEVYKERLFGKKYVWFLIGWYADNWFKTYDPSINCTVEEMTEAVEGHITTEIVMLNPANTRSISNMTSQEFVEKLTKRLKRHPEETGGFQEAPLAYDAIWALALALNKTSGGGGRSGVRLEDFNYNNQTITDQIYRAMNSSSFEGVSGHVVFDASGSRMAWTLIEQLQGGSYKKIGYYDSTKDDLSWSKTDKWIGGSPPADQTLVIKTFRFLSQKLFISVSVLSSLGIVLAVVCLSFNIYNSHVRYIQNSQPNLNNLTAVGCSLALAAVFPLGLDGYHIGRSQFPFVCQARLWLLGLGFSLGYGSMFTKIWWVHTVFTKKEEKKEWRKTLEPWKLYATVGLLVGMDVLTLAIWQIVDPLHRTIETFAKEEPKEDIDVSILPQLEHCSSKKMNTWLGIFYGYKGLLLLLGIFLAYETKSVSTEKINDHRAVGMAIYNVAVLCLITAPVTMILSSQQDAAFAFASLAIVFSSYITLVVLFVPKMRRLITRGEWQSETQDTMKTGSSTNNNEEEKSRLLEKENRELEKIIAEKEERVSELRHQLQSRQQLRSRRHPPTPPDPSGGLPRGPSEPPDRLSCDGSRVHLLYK
Sequence of GABA-B receptor (O88871 41-940): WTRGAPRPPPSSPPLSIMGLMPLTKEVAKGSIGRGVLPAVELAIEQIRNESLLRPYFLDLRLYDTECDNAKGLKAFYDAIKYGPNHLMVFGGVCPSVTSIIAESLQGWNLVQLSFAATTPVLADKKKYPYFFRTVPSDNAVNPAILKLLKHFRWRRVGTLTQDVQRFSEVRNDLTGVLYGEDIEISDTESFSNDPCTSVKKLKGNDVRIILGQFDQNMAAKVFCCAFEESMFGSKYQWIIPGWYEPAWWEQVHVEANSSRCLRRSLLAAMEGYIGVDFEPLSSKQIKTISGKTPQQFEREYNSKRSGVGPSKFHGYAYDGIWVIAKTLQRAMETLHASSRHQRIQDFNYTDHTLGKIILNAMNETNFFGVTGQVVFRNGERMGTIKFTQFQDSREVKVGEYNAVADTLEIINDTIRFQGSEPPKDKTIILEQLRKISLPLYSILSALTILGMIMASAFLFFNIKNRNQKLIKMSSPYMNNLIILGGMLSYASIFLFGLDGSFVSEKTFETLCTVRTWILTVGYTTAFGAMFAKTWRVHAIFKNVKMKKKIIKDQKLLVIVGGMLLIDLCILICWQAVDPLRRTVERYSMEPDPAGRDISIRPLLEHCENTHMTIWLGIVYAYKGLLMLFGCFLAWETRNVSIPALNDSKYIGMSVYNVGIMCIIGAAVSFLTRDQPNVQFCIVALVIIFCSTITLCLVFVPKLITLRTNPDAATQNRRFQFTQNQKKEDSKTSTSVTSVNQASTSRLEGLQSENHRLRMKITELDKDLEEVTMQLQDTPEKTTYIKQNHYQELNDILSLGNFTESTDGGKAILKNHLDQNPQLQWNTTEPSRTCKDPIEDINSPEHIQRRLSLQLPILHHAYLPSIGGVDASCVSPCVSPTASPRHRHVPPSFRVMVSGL

As to `Cc1cc(N[C@H]2C[C@@H](O)C2)n2nc(C(C)c3ccc(Cl)cc3)cc2n1` (relative stereo) [Example 2-18, cis-3-({2-[1-(4-chlorophenyl)ethyl]-5-methylpyrazolo[1,5-a]pyrimidin-7-yl}amino)cyclobutanol], the EC50 is 0.499 µM.
Regarding `Cc1cc(N[C@H]2C[C@H](O)C2)n2nc(C(C)c3ccc(Cl)cc3)cc2n1` (relative stereo) [Example 2-19, trans-3-({2-[1-(4-chlorophenyl)ethyl]-5-methylpyrazolo[1,5-a]pyrimidin-7-yl}amino)cyclobutanol], the concentration giving a half-maximal response (EC50) turned out to be 1.31 µM.
Consider `Cc1cc(N2CCCCC2CCO)n2nc(Cc3ccc(Cl)cc3)cc2n1` (centres unmarked) [Example 1-1, 2-{1-[2-(4-chlorobenzyl)-5-methylpyrazolo[1,5-a]pyrimidin-7-yl]piperidin-2-yl}ethanol], for which the EC50 worked out at 1.4 µM.
Next, `Cc1cc(N2CCCCC2CO)n2nc(Cc3ccc(Cl)cc3)cc2n1` (centres unmarked) [Example 1-2, {1-[2-(4-chlorobenzyl)-5-methylpyrazolo[1,5-a]pyrimidin-7-yl]piperidin-2-yl}methanol]: 1.66 µM.
Turning to `Cc1cc(NC2(C)CC2)n2nc(Cc3ccc(Cl)cc3)cc2n1` [Example 1-3, 2-(4-chlorobenzyl)-5-methyl-N-(1-methylcyclopropyl)pyrazolo[1,5-a]pyrimidin-7-amine], the EC50 was found to be 2.55 µM.
Under `Cc1cc(N2CCCC(F)(F)C2)n2nc(Cc3ccc(Cl)cc3)cc2n1` [Example 1-4, 2-(4-chlorobenzyl)-7-(3,3-difluoropiperidin-1-yl)-5-methylpyrazolo[1,5-a]pyrimidine] stands 2.89 µM; under `Cc1cc(N2CCC(O)C(F)(F)C2)n2nc(Cc3ccc(Cl)cc3)cc2n1` (centres unmarked) [Example 1-5, 1-[2-(4-chlorobenzyl)-5-methylpyrazolo[1,5-a]pyrimidin-7-yl]-3,3-difluoropiperidin-4-ol], 5.93 µM; under `Cc1cc(N2CCC[C@H](O)C2)n2nc(Cc3ccc(Cl)cc3)cc2n1` [Example 1-6, (3S)-1-[2-(4-chlorobenzyl)-5-methylpyrazolo[1,5-a]pyrimidin-7-yl]piperidin-3-ol], 0.974 µM.
For the compound `Cc1cc(N2CCC[C@@H](O)C2)n2nc(Cc3ccc(Cl)cc3)cc2n1` [Example 1-7, (3R)-1-[2-(4-chlorobenzyl)-5-methylpyrazolo[1,5-a]pyrimidin-7-yl]piperidin-3-ol], the EC50 was found to be 1.23 µM.
For `Cc1cc(N2CCC[C@H](CO)C2)n2nc(Cc3ccc(Cl)cc3)cc2n1` [Example 1-8, {(3S)-1-[2-(4-chlorobenzyl)-5-methylpyrazolo[1,5-a]pyrimidin-7-yl]piperidin-3-yl}methanol], the EC50 was determined as 1.3 µM.
Regarding `Cc1cc(N2CCCCC2)n2nc(Cc3ccc(Cl)cc3)cc2n1` [Example 1-9, 2-(4-chlorobenzyl)-5-methyl-7-(piperidin-1-yl)pyrazolo[1,5-a]pyrimidine], the half-maximal effective concentration (EC50) is 2.57 µM.
Under `Cc1cc(N2CCCCC2=O)n2nc(Cc3ccc(Cl)cc3)cc2n1` [Example 1-10, 1-[2-(4-chlorobenzyl)-5-methylpyrazolo[1,5-a]pyrimidin-7-yl]piperidin-2-one] stands more than 10 µM; under `CC(=O)N[C@@H]1CCN(c2cc(C)nc3cc(Cc4ccc(Cl)cc4)nn23)C1` [Example 1-11, N-{(3R)-1-[2-(4-chlorobenzyl)-5-methylpyrazolo[1,5-a]pyrimidin-7-yl]pyrrolidin-3-yl}acetamide], more than 10 µM; under `Cc1cc(N2CCCC2)n2nc(Cc3ccc(Cl)cc3)cc2n1` [Example 1-12, 2-(4-chlorobenzyl)-5-methyl-7-(pyrrolidin-1-yl)pyrazolo[1,5-a]pyrimidine], 3.97 µM.
In the case of `Cc1cc(N2CCC2)n2nc(Cc3ccc(Cl)cc3)cc2n1` [Example 1-13, 7-(azetidin-1-yl)-2-(4-chlorobenzyl)-5-methylpyrazolo[1,5-a]pyrimidine], the EC50 was more than 10 µM.
Under `Cc1cc(NC(C)(C)C)n2nc(Cc3ccc(Cl)cc3)cc2n1` [Example 1-14, N-tert-butyl-2-(4-chlorobenzyl)-5-methylpyrazolo[1,5-a]pyrimidin-7-amine] stands 1.03 µM.
Next, `Cc1cc(NC2(C(F)(F)F)CC2)n2nc(Cc3ccc(Cl)cc3)cc2n1` [Example 1-15, 2-(4-chlorobenzyl)-5-methyl-N-[1-(trifluoromethyl)cyclopropyl]pyrazolo[1,5-a]pyrimidin-7-amine]: 1.18 µM; `Cc1cc(NCC(F)(F)F)n2nc(Cc3ccc(Cl)cc3)cc2n1` [Example 1-16, 2-(4-chlorobenzyl)-5-methyl-N-(2,2,2-trifluoroethyl)pyrazolo[1,5-a]pyrimidin-7-amine]: more than 10 µM.
Under `CC(=O)N[C@H]1CCN(c2cc(C)nc3cc(Cc4ccc(Cl)cc4)nn23)C1` [Example 1-17, N-{(3S)-1-[2-(4-chlorobenzyl)-5-methylpyrazolo[1,5-a]pyrimidin-7-yl]pyrrolidin-3-yl}acetamide] stands more than 10 µM; under `Cc1cc(N[C@@H](C)C(F)(F)F)n2nc(Cc3ccc(Cl)cc3)cc2n1` [Example 1-18, 2-(4-chlorobenzyl)-5-methyl-N-[(2S)-1,1,1-trifluoropropan-2-yl]pyrazolo[1,5-a]pyrimidin-7-amine], 2.69 µM.
For the compound `Cc1cc(N2CCCC(C(N)=O)C2)n2nc(Cc3ccc(Cl)cc3)cc2n1` (centres unmarked) [Example 1-19, 1-[2-(4-chlorobenzyl)-5-methylpyrazolo[1,5-a]pyrimidin-7-yl]piperidine-3-carboxamide], the EC50 turned out to be 10 µM.
Next, `Cc1cc(N[C@H](C)C(F)(F)F)n2nc(Cc3ccc(Cl)cc3)cc2n1` [Example 1-20, 2-(4-chlorobenzyl)-5-methyl-N-[(2R)-1,1,1-trifluoropropan-2-yl]pyrazolo[1,5-a]pyrimidin-7-amine]: 2.15 µM; `Cc1cc(N2CCC[C@@H](CO)C2)n2nc(Cc3ccc(Cl)cc3)cc2n1` [Example 1-21, {(3R)-1-[2-(4-chlorobenzyl)-5-methylpyrazolo[1,5-a]pyrimidin-7-yl]piperidin-3-yl}methanol]: 1.38 µM; `Cc1cc(N2CCCCC2CCO)n2nc(C(C)c3ccc(Cl)cc3)cc2n1` (centres unmarked) [Example 2-1, 2-(1-{2-[1-(4-chlorophenyl)ethyl]-5-methylpyrazolo[1,5-a]pyrimidin-7-yl}piperidin-2-yl)ethanol]: 0.118 µM.
On to `Cc1cc(NC2(C)CC2)n2nc(C(C)c3ccc(Cl)cc3)cc2n1` (centres unmarked) [Example 2-2, 2-[1-(4-chlorophenyl)ethyl]-5-methyl-N-(1-methylcyclopropyl)pyrazolo[1,5-a]pyrimidin-7-amine], for which the EC50 worked out at 0.435 µM.
Under `Cc1cc(N2CCC(F)(F)C2)n2nc(C(C)c3ccc(Cl)cc3)cc2n1` (centres unmarked) [Example 2-3, 2-[1-(4-chlorophenyl)ethyl]-7-(3,3-difluoropyrrolidin-1-yl)-5-methylpyrazolo[1,5-a]pyrimidine] stands 0.508 µM.
`Cc1cc(N2CCC(F)CC2)n2nc(C(C)c3ccc(Cl)cc3)cc2n1` (centres unmarked) [Example 2-4, 2-[1-(4-chlorophenyl)ethyl]-7-(4-fluoropiperidin-1-yl)-5-methylpyrazolo[1,5-a]pyrimidine]: the 50% effective concentration (EC50) turned out to be 0.128 µM.
As for `Cc1cc(N2CCCCC2CO)n2nc(C(C)c3ccc(Cl)cc3)cc2n1` (centres unmarked) [Example 2-5, (1-{2-[1-(4-chlorophenyl)ethyl]-5-methylpyrazolo[1,5-a]pyrimidin-7-yl}piperidin-2-yl)methanol], the EC50 is 0.146 µM.
Under `Cc1cc(N2CCCC(F)C2)n2nc(C(C)c3ccc(Cl)cc3)cc2n1` (centres unmarked) [Example 2-6, 2-[1-(4-chlorophenyl)ethyl]-7-(3-fluoropiperidin-1-yl)-5-methylpyrazolo[1,5-a]pyrimidine] stands 0.242 µM; under `Cc1cc(N2CCCC(F)(F)C2)n2nc(C(C)c3ccc(Cl)cc3)cc2n1` (centres unmarked) [Example 2-7, 2-[1-(4-chlorophenyl)ethyl]-7-(3,3-difluoropiperidin-1-yl)-5-methylpyrazolo[1,5-a]pyrimidine], 0.185 µM.
Under `Cc1cc(NC(C)(C)C)n2nc(C(C)c3ccc(Cl)cc3)cc2n1` (centres unmarked) [Example 2-8, N-tert-butyl-2-[1-(4-chlorophenyl)ethyl]-5-methylpyrazolo[1,5-a]pyrimidin-7-amine] stands 0.071 µM; under `Cc1cc(N2CCC3(CC2)COC3)n2nc(C(C)c3ccc(Cl)cc3)cc2n1` (centres unmarked) [Example 2-9, 2-[1-(4-chlorophenyl)ethyl]-5-methyl-7-(2-oxa-7-azaspiro[3.5]non-7-yl)pyrazolo[1,5-a]pyrimidine], 0.604 µM.

By EC50 is commonly meant the midpoint of the concentration-response curve.

The values are drawn from patent US9828381B2, “Substituted pyrazolopyrimidines and method of use” (AbbVie Deutschland GmbH & Co. KG, priority 2015, dated 2017).
